Experimental data from patent US20260028326A1, “COMPOUND BASED ON ISOINDOLINE-SUBSTITUTED GLUTARIMIDE BACKBONE AND USE THEREOF” (GLUETACS THERAPEUTICS (SHANGHAI) CO., LTD., priority 2022, published 2026).

How the values were obtained:
GSPT1 protein = GSPT1 protein (Homo sapiens (Human), UniProt P15170+Q96SW2); experiment: Western-blot assay of substrate protein degradation in hPBMC, GSPT1; type: cell-based; settings: hPBMC cells, compound 500 nM, 24 hours, Western blot
[1] = molecular target: human Cereblon WT GST-tagged protein (Homo sapiens (Human), UniProt Q96SW2); experiment: CRBN-binding affinity, HTRF (CEREBLON BINDING kit)
In short: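 HTRF competition readout: compounds compete with a thalidomide-Re conjugate for GST-tagged wild-type human CRBN detected via Eu-labelled anti-GST antibody. Inhibition rate derived relative to protein-free blank wells.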

Daudi cells = experiment: Tumor cell proliferation IC50 (CCK-8), Daudi; settings: Homo sapiens, read-out: IC50 for inhibiting the proliferation of tumor cells, Daudi;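 further: cell viability read with CCK-8 reagent after compound exposure of Daudi cells, IC50 derived from plotted growth inhibition curves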
Procedure: (§1) The tumor cells used herein were cultured in a cell culture medium listed in table A at 37° C. in an incubator with 5% CO2.
(§2) After the cells were treated with the compounds of the present disclosure for a period of time, the cell viability detection reagent was added to the culture medium for cell viability assessment according to the instructions provided with the CCK-8 kit. […] The growth inhibition of the compounds of the present disclosure on cells was plotted by Prism Graphpad software, and the IC50 values of the compounds of the present disclosure were calculated therefrom.

Mino cells = experiment: Tumor cell proliferation IC50 (CCK-8), Mino; settings: Homo sapiens, 72 h, read-out: IC50 for inhibiting the proliferation of tumor cells, Mino;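 further: cell viability assessed with CCK-8 reagent after compound exposure, IC50 derived from plotted growth inhibition curves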
IKZF1 protein = IKZF1 protein (Homo sapiens (Human), UniProt Q13422+Q96SW2); experiment: Western-blot assay of substrate protein degradation in hPBMC, IKZF1; type: cell-based; settings: hPBMC cells, compound 500 nM, 24 hours, Western blot
MM.1S cells = experiment: Tumor cell proliferation IC50 (CCK-8), MM.1S; settings: Homo sapiens, MM1.S, 72 h, read-out: IC50 for inhibiting the proliferation of tumor cells, MM.1S;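 further: viability of cultured cells read by CCK-8 reagent after compound exposure, growth inhibition curves fitted to derive IC50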
Procedure: as §1, §2

IKZF3 protein = IKZF3 protein (Homo sapiens (Human), UniProt Q96SW2+Q9UKT9); experiment: Western-blot assay of substrate protein degradation in hPBMC, IKZF3; type: cell-based; settings: hPBMC cells, compound 500 nM, 24 hours, Western blot
CCRF-CEM cells = experiment: Tumor cell proliferation IC50 (CCK-8), CCRF-CEM; settings: Homo sapiens, 96 h, read-out: IC50 for inhibiting the proliferation of tumor cells, CCRF-CEM;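 further: cell viability measured with CCK-8 reagent after compound treatment, IC50 taken from plotted growth inhibition curves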

Sequence of GSPT1 protein (P15170 whole entry): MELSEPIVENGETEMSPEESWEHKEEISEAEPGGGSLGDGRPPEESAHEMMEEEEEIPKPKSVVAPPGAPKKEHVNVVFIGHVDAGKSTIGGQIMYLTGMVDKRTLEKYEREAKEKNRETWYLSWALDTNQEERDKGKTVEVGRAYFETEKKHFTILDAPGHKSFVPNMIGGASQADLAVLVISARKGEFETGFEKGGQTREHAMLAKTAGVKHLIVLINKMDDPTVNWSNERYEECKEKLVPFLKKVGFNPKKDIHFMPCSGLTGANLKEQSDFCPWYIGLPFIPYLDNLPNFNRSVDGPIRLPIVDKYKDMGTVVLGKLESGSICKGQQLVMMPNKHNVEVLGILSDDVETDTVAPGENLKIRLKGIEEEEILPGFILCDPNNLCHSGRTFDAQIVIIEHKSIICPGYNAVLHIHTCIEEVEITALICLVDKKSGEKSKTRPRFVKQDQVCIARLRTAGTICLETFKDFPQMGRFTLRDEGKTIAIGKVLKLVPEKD
Sequence of GSPT1 protein (Q96SW2 whole entry): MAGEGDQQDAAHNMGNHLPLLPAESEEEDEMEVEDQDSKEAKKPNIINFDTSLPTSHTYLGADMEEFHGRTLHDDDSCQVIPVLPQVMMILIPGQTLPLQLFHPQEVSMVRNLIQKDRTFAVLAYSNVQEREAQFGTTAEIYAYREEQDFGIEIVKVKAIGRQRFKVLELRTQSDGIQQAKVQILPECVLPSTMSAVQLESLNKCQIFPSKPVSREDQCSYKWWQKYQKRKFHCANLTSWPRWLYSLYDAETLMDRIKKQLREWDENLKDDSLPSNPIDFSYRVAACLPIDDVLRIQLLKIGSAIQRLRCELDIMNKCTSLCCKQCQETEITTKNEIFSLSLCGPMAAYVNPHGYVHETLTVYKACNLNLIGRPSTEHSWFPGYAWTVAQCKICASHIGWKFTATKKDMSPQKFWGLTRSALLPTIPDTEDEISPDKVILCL
Sequence of GSPT1 protein (Q16531 whole entry partner): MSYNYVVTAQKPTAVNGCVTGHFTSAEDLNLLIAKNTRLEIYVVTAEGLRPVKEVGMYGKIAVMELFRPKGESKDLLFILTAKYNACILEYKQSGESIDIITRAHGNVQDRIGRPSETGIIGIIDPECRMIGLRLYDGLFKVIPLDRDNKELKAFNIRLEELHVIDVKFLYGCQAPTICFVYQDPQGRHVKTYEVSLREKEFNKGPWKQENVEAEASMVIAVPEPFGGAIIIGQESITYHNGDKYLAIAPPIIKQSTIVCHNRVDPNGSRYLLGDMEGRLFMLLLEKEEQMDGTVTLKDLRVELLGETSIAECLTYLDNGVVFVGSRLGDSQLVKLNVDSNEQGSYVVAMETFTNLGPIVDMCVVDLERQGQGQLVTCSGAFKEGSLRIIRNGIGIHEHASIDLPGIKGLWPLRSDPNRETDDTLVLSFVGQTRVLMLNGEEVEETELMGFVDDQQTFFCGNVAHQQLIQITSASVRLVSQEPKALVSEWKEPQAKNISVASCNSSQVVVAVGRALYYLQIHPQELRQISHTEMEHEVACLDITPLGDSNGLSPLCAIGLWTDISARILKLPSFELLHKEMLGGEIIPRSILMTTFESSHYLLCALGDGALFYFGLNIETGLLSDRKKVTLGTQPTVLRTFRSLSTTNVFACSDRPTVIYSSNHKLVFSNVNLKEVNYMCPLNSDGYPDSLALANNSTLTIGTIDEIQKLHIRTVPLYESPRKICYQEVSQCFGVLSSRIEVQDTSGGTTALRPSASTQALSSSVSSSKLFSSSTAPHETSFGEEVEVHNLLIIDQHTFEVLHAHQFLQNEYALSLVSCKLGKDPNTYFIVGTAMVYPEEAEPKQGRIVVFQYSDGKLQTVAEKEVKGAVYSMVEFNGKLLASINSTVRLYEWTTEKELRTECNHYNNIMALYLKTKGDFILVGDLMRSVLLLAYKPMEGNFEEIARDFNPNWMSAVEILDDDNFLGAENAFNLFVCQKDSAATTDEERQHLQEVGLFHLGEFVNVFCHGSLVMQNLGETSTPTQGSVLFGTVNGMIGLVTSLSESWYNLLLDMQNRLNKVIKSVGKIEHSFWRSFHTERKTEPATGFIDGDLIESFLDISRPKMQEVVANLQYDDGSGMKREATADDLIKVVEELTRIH
Sequence of IKZF3 protein (Q9UKT9 whole entry): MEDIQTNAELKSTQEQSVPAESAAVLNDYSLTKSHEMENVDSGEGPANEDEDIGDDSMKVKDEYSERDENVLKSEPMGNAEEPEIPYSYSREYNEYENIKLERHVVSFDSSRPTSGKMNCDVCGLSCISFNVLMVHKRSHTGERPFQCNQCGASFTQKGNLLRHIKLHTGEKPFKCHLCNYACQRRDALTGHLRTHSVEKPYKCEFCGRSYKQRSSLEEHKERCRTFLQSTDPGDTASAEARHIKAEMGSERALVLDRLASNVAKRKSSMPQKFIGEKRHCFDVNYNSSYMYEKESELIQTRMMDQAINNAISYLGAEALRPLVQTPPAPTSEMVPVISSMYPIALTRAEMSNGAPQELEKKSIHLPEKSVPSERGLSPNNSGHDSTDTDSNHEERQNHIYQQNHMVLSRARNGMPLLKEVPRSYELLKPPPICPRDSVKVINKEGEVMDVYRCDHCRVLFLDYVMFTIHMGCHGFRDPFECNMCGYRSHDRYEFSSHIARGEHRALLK
Sequence of IKZF3 protein (Q96SW2 whole entry): as the sequence (Q96SW2 whole entry) above
Sequence of IKZF3 protein (Q16531 whole entry partner): as the sequence (Q16531 whole entry partner) above
Sequence of IKZF1 protein (Q13422 whole entry): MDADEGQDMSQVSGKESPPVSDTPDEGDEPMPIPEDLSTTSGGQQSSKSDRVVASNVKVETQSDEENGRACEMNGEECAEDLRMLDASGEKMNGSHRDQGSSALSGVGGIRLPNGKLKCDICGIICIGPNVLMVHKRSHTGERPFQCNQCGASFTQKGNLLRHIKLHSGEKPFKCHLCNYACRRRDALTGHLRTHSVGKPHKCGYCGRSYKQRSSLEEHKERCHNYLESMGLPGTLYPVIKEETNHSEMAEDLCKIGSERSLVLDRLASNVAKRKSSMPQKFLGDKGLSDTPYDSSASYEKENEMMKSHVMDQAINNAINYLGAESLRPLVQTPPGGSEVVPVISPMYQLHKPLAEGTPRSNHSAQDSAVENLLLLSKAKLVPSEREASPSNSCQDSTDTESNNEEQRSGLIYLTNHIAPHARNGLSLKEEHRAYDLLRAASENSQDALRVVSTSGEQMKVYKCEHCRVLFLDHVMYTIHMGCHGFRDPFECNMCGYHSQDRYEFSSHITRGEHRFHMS
Sequence of IKZF1 protein (Q96SW2 whole entry): as the sequence (Q96SW2 whole entry) above
Sequence of IKZF1 protein (Q16531 whole entry partner): as the sequence (Q16531 whole entry partner) above
Sequence of human Cereblon WT GST-tagged protein (Q96SW2 whole entry): as the sequence (Q96SW2 whole entry) above

Row | Compound | residual substrate protein level, GSPT1 (GSPT1 protein) | IC50 [1] | IC50 (Daudi cells) | IC50 (Mino cells) | residual substrate protein level, IKZF1 (IKZF1 protein) | IC50 (MM.1S cells) | residual substrate protein level, IKZF3 (IKZF3 protein) | IC50 (CCRF-CEM cells)
1 | CC1(C)CCC(CN2CCN(Cc3ccc4c(c3)CN(C3CCC(=O)NC3=O)C4=O)CC2)=C(c2cncs2)C1 (centres unmarked) [GT-05791, 3-(5-((4-((4,4-dimethyl-2-(thiazol-5-yl)cyclohex-1-en-1-yl)methyl)piperazin-1-yl)methyl)-1-oxoisoindolin-2-yl)piperidine-2,6-dione] | B (B represents a residual substrate protein level of >50%) | 730 nM | 500 to 1000 nM | 10 to 50 nM | A (A represents a residual substrate protein level of <50%) | 10 to 50 nM | A (A represents a residual substrate protein level of <50%) | 
2 | O=C1CCC(N2Cc3cc(CN4CCN(Cc5ccccc5-c5ccco5)CC4)ccc3C2=O)C(=O)N1 (centres unmarked) [GT-05779, 3-(5-((4-(2-(furan-2-yl)benzyl)piperazin-1-yl)methyl)-1-oxoisoindolin-2-yl)piperidine-2,6-dione] | A (A represents a residual substrate protein level of <50%) | 430 nM | 50 to 100 nM | 5 to 10 nM | A (A represents a residual substrate protein level of <50%) | 5 to 10 nM | A (A represents a residual substrate protein level of <50%) | 5 to 10 nM
3 | O=C1CCC(N2Cc3cc(CN4CCN(Cc5ccc(-c6ccc(Cl)cc6)nc5)CC4)ccc3C2=O)C(=O)N1 (centres unmarked) [GT-05632, 3-(5-((4-((6-(4-chlorophenyl)pyridin-3-yl)methyl)piperazin-1-yl)methyl)-1-oxoisoindolin-2-yl)piperidine-2,6-dione] |  | 720 nM | 10 to 50 nM | < 5 nM |  | 100 to 500 nM |  | 
4 | Cn1cccc1-c1ccccc1CN1CCN(Cc2ccc3c(c2)CN(C2CCC(=O)NC2=O)C3=O)CC1 (centres unmarked) [GT-05683, 3-(5-((4-(2-(1-methyl-1H-pyrrol-2-yl)benzyl)piperazin-1-yl)methyl)-1-oxoisoindolin-2-yl)piperidine-2,6-dione] |  | 750 nM | 50 to 100 nM | 10 to 50 nM |  | 5 to 10 nM |  | 5 to 10 nM
5 | O=C1CCC(N2Cc3cc(CN4CCN(Cc5ccc(-c6ccco6)s5)CC4)ccc3C2=O)C(=O)N1 (centres unmarked) [GT-05780, 3-(5-((4-((5-(furan-2-yl)thiophen-2-yl)methyl)piperazin-1-yl)methyl)-1-oxoisoindolin-2-yl)piperidine-2,6-dione] | A (A represents a residual substrate protein level of <50%) | 230 nM | 100 to 500 nM | 5 to 10 nM | A (A represents a residual substrate protein level of <50%) | 500 to 1000 nM | A (A represents a residual substrate protein level of <50%) | 
6 | O=C1CCC(N2Cc3cc(CN4CCN(Cc5ccc(-c6ccco6)cc5)CC4)ccc3C2=O)C(=O)N1 (centres unmarked) [GT-05693, 3-(5-((4-(4-(furan-2-yl)benzyl)piperazin-1-yl)methyl)-1-oxoisoindolin-2-yl)piperidine-2,6-dione] | B (B represents a residual substrate protein level of >50%) | 310 nM | 500 to 1000 nM | 10 to 50 nM | B (B represents a residual substrate protein level of >50%) | 100 to 500 nM | A (A represents a residual substrate protein level of <50%) | 
7 | O=C1CCC(N2Cc3cc(CN4CCN(Cc5cnccc5-c5ccc(Cl)cc5)CC4)ccc3C2=O)C(=O)N1 (centres unmarked) [GT-05703, 3-(5-((4-((4-(4-chlorophenyl)pyridin-3-yl)methyl)piperazin-1-yl)methyl)-1-oxoisoindolin-2-yl)piperidine-2,6-dione] | B (B represents a residual substrate protein level of >50%) | 530 nM | 100 to 500 nM | 10 to 50 nM | A (A represents a residual substrate protein level of <50%) | 5 to 10 nM | A (A represents a residual substrate protein level of <50%) | 
8 | O=C1CCC(N2Cc3cc(CN4CCN(Cc5ccc(-c6ccc(Cl)cc6)s5)CC4)ccc3C2=O)C(=O)N1 (centres unmarked) [GT-05625, 3-(5-((4-((5-(4-chlorophenyl)thiophen-2-yl)methyl)piperazin-1-yl)methyl)-1-oxoisoindolin-2-yl)piperidine-2,6-dione] | B (B represents a residual substrate protein level of >50%) | 1670 nM | 100 to 500 nM | 50 to 100 nM | B (B represents a residual substrate protein level of >50%) | 100 to 500 nM | B (B represents a residual substrate protein level of >50%) | 
9 | Cc1ccc(C2=C(CN3CCN(Cc4ccc5c(c4)CN(C4CCC(=O)NC4=O)C5=O)CC3)CCC(C)(C)C2)cc1 (centres unmarked) [GT-05792, 3-(1-oxo-5-((4-((4′,5,5-trimethyl-3,4,5,6-tetrahydro-[1,1′-biphenyl]-2-yl)methyl)piperazin-1-yl)methyl)isoindolin-2-yl)piperidine-2,6-dione] |  | 660 nM | 50 to 100 nM | 5 to 10 nM |  | 5 to 10 nM |  | 5 to 10 nM
10 | O=C1CCC(N2Cc3cc(NC4CCN(C(=O)c5ccccc5-c5ccc(Cl)cc5)CC4)ccc3C2=O)C(=O)N1 (centres unmarked) [GT-05784, 3-(5-((1-(4′-chloro-[1,1′-biphenyl]-2-carbonyl)piperidin-4-yl)amino)-1-oxoisoindolin-2-yl)piperidine-2,6-dione] |  | 620 nM | 10 to 50 nM | < 5 nM |  | < 5 nM |  | < 5 nM
11 | CC1(C)CC(c2ccc(Cl)cc2)=C(CN2CCN(Cc3ccc4c(c3)CN(C3CCC(=O)NC3=O)C4=O)CC2)CO1 (centres unmarked) [GT-05672, 3-(5-((4-((4-(4-chlorophenyl)-6,6-dimethyl-5,6-dihydro-2H-pyran-3-yl)methyl)piperazin-1-yl)methyl)-1-oxoisoindolin-2-yl)piperidine-2,6-dione] | A (A represents a residual substrate protein level of <50%) | 580 nM | 500 to 1000 nM | 10 to 50 nM | A (A represents a residual substrate protein level of <50%) | 10 to 50 nM | A (A represents a residual substrate protein level of <50%) | 
12 | O=C1CCC(N2C(=O)c3ccc(CN4CCN(Cc5ccc(-c6ccc(Cl)cc6)s5)CC4)cc3C2=O)C(=O)N1 (centres unmarked) [GT-05626, 5-((4-((5-(4-chlorophenyl)thiophen-2-yl)methyl)piperazin-1-yl)methyl)-2-(2,6-dioxopiperidin-3-yl)isoindoline-1,3-dione] | B (B represents a residual substrate protein level of >50%) |  | 500 to 1000 nM | 500 to 1000 nM | B (B represents a residual substrate protein level of >50%) |  | B (B represents a residual substrate protein level of >50%) | 500 to 1000 nM
13 | O=C1CCC(N2Cc3cc(CN4CCN(Cc5ccc(-c6cccs6)s5)CC4)ccc3C2=O)C(=O)N1 (centres unmarked) [GT-05624, 3-(5-((4-([2,2′-bithiophen]-5-ylmethyl)piperazin-1-yl)methyl)-1-oxoisoindolin-2-yl)piperidine-2,6-dione] | B (B represents a residual substrate protein level of >50%) | 470 nM | 500 to 1000 nM | 10 to 50 nM | A (A represents a residual substrate protein level of <50%) | 100 to 500 nM | A (A represents a residual substrate protein level of <50%) | 
14 | O=C1CCC(N2Cc3c(ccc(CN4CCN(CC5=C(c6ccc(F)cc6)CCCC5)CC4)c3F)C2=O)C(=O)N1 (centres unmarked) [GT-05466, 3-(4-fluoro-5-((4-((4′-fluoro-3,4,5,6-tetrahydro-[1,1′-biphenyl]-2-yl)methyl)piperazin-1-yl)methyl)-1-oxoisoindolin-2-yl)piperidine-2,6-dione] | A (A represents a residual substrate protein level of <50%) | 700 nM | 50 to 100 nM | 10 to 50 nM | A (A represents a residual substrate protein level of <50%) | 10 to 50 nM | A (A represents a residual substrate protein level of <50%) | 
